Data: PubChem BioAssay (NCI)
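Values below derive from 48-hour exposures of cells grown in 96-well plates, with endpoints linearly interpolated between the two concentrations bracketing the appropriate inhibition level. The concentration for full growth arrest is given as TGI.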

How the values were obtained:
Test in all cases: growth of human tumour cells (NCI), 48 h
M19-MEL melanoma = system: M19-MEL melanoma
K-562 leukemia = system: K-562 leukemia
SNB-78 CNS = system: SNB-78 CNS
DMS 114 small cell lung = system: DMS 114 small cell lung
DLD-1 colon = system: DLD-1 colon
KM20L2 colon = system: KM20L2 colon
HOP-18 NSCLC = system: HOP-18 NSCLC
DMS 273 small cell lung = system: DMS 273 small cell lung
LXFL 529 NSCLC = system: LXFL 529 NSCLC
XF 498 CNS = system: XF 498 CNS
HCC-2998 colon = system: HCC-2998 colon
RXF-631 renal = system: RXF-631 renal

CCn1c2ccccc2c2ccc3c(c21)C(=O)c1ccccc1C3=O showed a TGI (M19-MEL melanoma) of 60.6 µM, a TGI (K-562 leukemia) of over 100 µM and a TGI (SNB-78 CNS) of over 100 µM. It also gave a TGI (DMS 114 small cell lung) of over 100 µM, a TGI (DLD-1 colon) of over 100 µM and a TGI (KM20L2 colon) of over 100 µM. For the same compound, the TGI (HOP-18 NSCLC) was over 100 µM, the TGI (DMS 273 small cell lung) was over 100 µM and the TGI (LXFL 529 NSCLC) was over 100 µM. For the same compound, the TGI (XF 498 CNS) was over 100 µM and the TGI (HCC-2998 colon) was over 100 µM.

Work on O=C(c1ccco1)n1c2ccc(Br)cc2c2nc3ccccc3nc21 yielded a TGI (K-562 leukemia) of over 100 µM and a TGI (HCC-2998 colon) of over 100 µM.

Compound COc1cc(Cn2c(=S)ss/c2=N\C(=S)N(C)C)cc(OC)c1OC has a TGI (M19-MEL melanoma) of over 66.2 µM, a TGI (RXF-631 renal) of over 100 µM and a TGI (K-562 leukemia) of over 100 µM. For the same compound, the TGI (SNB-78 CNS) was over 100 µM, the TGI (DMS 114 small cell lung) was 12.8 µM and the TGI (DLD-1 colon) was over 100 µM. The TGI (KM20L2 colon) was over 100 µM, the TGI (HOP-18 NSCLC) was over 100 µM and the TGI (DMS 273 small cell lung) was over 100 µM. For the same compound, the TGI (LXFL 529 NSCLC) was over 100 µM and the TGI (HCC-2998 colon) was over 95.4 µM.

CC1=C(O)C(=O)C[C@]2(C)[C@H]3CC=C4[C@@H]5CC(C)(C)CC[C@@H]5C(=O)[C@H](O)[C@@]4(C)[C@]3(C)CC[C@@H]12 was tested, and the TGI (HCC-2998 colon) was over 50 µM.

Work on Cc1cnc(/N=c2\sc(C)cn2-c2ncc(C)s2)s1 yielded a TGI (K-562 leukemia) of over 100 µM and a TGI (HCC-2998 colon) of over 100 µM.

Compound CCN(CC)CCC1CCCCN1CC(=O)N1c2ccccc2NC(=O)c2ccccc21 (stereo not given) has a TGI (K-562 leukemia) of over 100 µM and a TGI (HCC-2998 colon) of over 100 µM.

Compound CN=CN(C)c1c2ccccc2nc2ccccc12 has a TGI (K-562 leukemia) of over 100 µM and a TGI (HCC-2998 colon) of over 100 µM.

O=C(O)CCC(NC(=O)c1ccc(Nc2cnc3ccc(C(F)(F)F)cc3n2)cc1)C(=O)O (stereo not given) showed a TGI (K-562 leukemia) of over 100 µM and a TGI (HCC-2998 colon) of over 100 µM.

In the case of OCC1OC(NCCNCCNC2OC(CO)C(O)C(O)C2O)C(O)C(O)C1O (stereo not given), the TGI (K-562 leukemia) is reported as over 100 µM and the TGI (HCC-2998 colon) is reported as over 100 µM.

Compound CCCCn1cnnc1NS(=O)(=O)c1cc(C)c(Cl)cc1SCC(=O)O has a TGI (K-562 leukemia) of over 10 µM and a TGI (HCC-2998 colon) of over 10 µM.

For O=C1/C(=C/c2ccc3c(c2)OCO3)CCC1CN1CCOCC1 (stereo not given), the TGI (M19-MEL melanoma) was 10 µM, the TGI (RXF-631 renal) was 44.7 µM and the TGI (K-562 leukemia) was 8.42 µM. For the same compound, the TGI (SNB-78 CNS) was 41.8 µM, the TGI (DMS 114 small cell lung) was 15.6 µM and the TGI (DLD-1 colon) was 6.31 µM. It also gave a TGI (KM20L2 colon) of 36.9 µM, a TGI (HOP-18 NSCLC) of 31.4 µM and a TGI (DMS 273 small cell lung) of 25.3 µM. It also gave a TGI (LXFL 529 NSCLC) of 7.68 µM and a TGI (HCC-2998 colon) of 17.4 µM.

With COc1cc(/C=C/C(=O)OC2C(O)C3CC(OC(=O)c4cc(OC)c(OC)c(OC)c4)CC2N3C)cc(OC)c1OC (stereo not given) the TGI (K-562 leukemia) was over 50 µM and the TGI (HCC-2998 colon) was over 50 µM.

Work on O=C1NC(=S)NC(=O)C1C(c1ccc([N+](=O)[O-])cc1)C1C(=O)NC(=S)NC1=O yielded a TGI (K-562 leukemia) of over 100 µM.

Compound C/C(=N\Nc1ccccc1Br)c1cccc(/C(C)=N/Nc2ccccc2Br)n1 has a TGI (K-562 leukemia) of over 100 µM and a TGI (HCC-2998 colon) of over 100 µM.

For c1ccc(-c2cs[s+]c2)cc1, the TGI (K-562 leukemia) was over 100 µM and the TGI (HCC-2998 colon) was over 100 µM.

Cc1cc(NC(=O)NC(=O)c2ccccc2N)ccc1Oc1ncc(Br)cn1 gave a TGI (M19-MEL melanoma) of over 100 µM, a TGI (K-562 leukemia) of over 100 µM and a TGI (SNB-78 CNS) of over 100 µM. The TGI (DMS 114 small cell lung) was 0.0209 µM, the TGI (DLD-1 colon) was over 47.9 µM and the TGI (KM20L2 colon) was 0.442 µM. The TGI (HOP-18 NSCLC) was over 78 µM, the TGI (LXFL 529 NSCLC) was over 57.2 µM and the TGI (XF 498 CNS) was 67.6 µM. It also gave a TGI (HCC-2998 colon) of 7.77 µM.

In the case of N#CCC(=O)c1cc(OCc2cc(OCc3ccc(Br)cc3)cc(OCc3ccc(Br)cc3)c2)cc(OCc2cc(OCc3ccc(Br)cc3)cc(OCc3ccc(Br)cc3)c2)c1, the TGI (K-562 leukemia) is reported as over 100 µM and the TGI (HCC-2998 colon) is reported as over 100 µM.

CCCCCCCCCCCCCCCCCCNc1ccn(C2OC(CO)C(O)C2O)c(=O)n1 (stereo not given) was tested, and the TGI (K-562 leukemia) was over 100 µM and the TGI (HCC-2998 colon) was over 100 µM.

CCOP(=O)(OCC)/C(C#N)=C/c1ccc(-c2ccc(F)cc2F)o1 gave a TGI (K-562 leukemia) of 38.1 µM and a TGI (HCC-2998 colon) of 27.6 µM.

In the case of CCOP1(=O)C=C(Sc2ccc([N+](=O)[O-])cc2[N+](=O)[O-])C(C)(C)O1 (stereo not given), the TGI (K-562 leukemia) is reported as over 20 µM and the TGI (HCC-2998 colon) is reported as 39.7 µM.

For COc1ccc(-c2cc(-c3ccc(Nc4ccnc5cc(Cl)ccc45)cc3)nc(N)c2C#N)cc1, the TGI (K-562 leukemia) was over 100 µM and the TGI (HCC-2998 colon) was over 100 µM.

Work on CC1(C)C2CCC(N)(C2)C1N (stereo not given) yielded a TGI (K-562 leukemia) of over 100 µM and a TGI (HCC-2998 colon) of over 100 µM.

COc1ccc(C(=O)c2sc(Nc3ccccc3)nc2N)cc1 gave a TGI (K-562 leukemia) of over 100 µM and a TGI (HCC-2998 colon) of over 100 µM.

For C(=Nc1ccc(-c2cc(-c3ccccc3)nc3ccc4ccccc4c23)cc1)c1ccccc1, the TGI (K-562 leukemia) was over 100 µM and the TGI (HCC-2998 colon) was 26.6 µM.

O=C1CCCCC1=C(I)I showed a TGI (K-562 leukemia) of 95.8 µM and a TGI (HCC-2998 colon) of 29.5 µM.

Work on Cc1nc(-n2[nH]c(C)c(CCO)c2=O)[nH]c(=O)c1CCO yielded a TGI (K-562 leukemia) of over 100 µM and a TGI (HCC-2998 colon) of over 100 µM.

CC(C)(C)[Si](C)(C)OCC1OC(n2ccc(=O)[nH]c2=O)C(O[Si](C)(C)C(C)(C)C)[C@@]12O[C@H]2C(N)=O (stereo not given in full) gave a TGI (HCC-2998 colon) of over 100 µM.

For NC1CC(N)c2c(Br)sc(Br)c21 (stereo not given), the TGI (K-562 leukemia) was over 100 µM and the TGI (HCC-2998 colon) was over 100 µM.

Compound O=C1NCCCC12CCCNC2=O has a TGI (M19-MEL melanoma) of over 100 µM, a TGI (K-562 leukemia) of over 100 µM and a TGI (DMS 114 small cell lung) of over 100 µM. For the same compound, the TGI (KM20L2 colon) was over 100 µM, the TGI (DMS 273 small cell lung) was over 100 µM and the TGI (LXFL 529 NSCLC) was over 100 µM. The TGI (XF 498 CNS) was over 100 µM and the TGI (HCC-2998 colon) was over 100 µM.

Nc1ccc(C(=O)NN2C(=O)C(Cl)C2c2cc(Br)ccc2O)cc1 (stereo not given) was tested, and the TGI (M19-MEL melanoma) was over 100 µM, the TGI (K-562 leukemia) was over 100 µM and the TGI (SNB-78 CNS) was over 100 µM. It also gave a TGI (DMS 114 small cell lung) of over 100 µM, a TGI (DLD-1 colon) of over 100 µM and a TGI (KM20L2 colon) of over 100 µM. It also gave a TGI (DMS 273 small cell lung) of over 100 µM, a TGI (LXFL 529 NSCLC) of over 100 µM and a TGI (XF 498 CNS) of over 100 µM. For the same compound, the TGI (HCC-2998 colon) was over 100 µM.

COc1ccc(C(Cc2cc(OC)c(OC)c(OC)c2)C(=O)O)cc1 (stereo not given) gave a TGI (M19-MEL melanoma) of over 100 µM, a TGI (RXF-631 renal) of over 100 µM and a TGI (K-562 leukemia) of over 100 µM. For the same compound, the TGI (SNB-78 CNS) was over 100 µM, the TGI (DMS 114 small cell lung) was over 100 µM and the TGI (DLD-1 colon) was over 100 µM. For the same compound, the TGI (KM20L2 colon) was over 100 µM, the TGI (HOP-18 NSCLC) was over 100 µM and the TGI (DMS 273 small cell lung) was over 100 µM. It also gave a TGI (XF 498 CNS) of over 100 µM and a TGI (HCC-2998 colon) of over 100 µM.

COC(=O)C1CC=C(SC(=O)c2ccccc2)N1C(=O)c1ccccc1 (stereo not given) was tested, and the TGI (K-562 leukemia) was over 100 µM and the TGI (HCC-2998 colon) was over 100 µM.

With C#CCOCn1ccc(=O)[nH]c1=O the TGI (K-562 leukemia) was over 100 µM and the TGI (HCC-2998 colon) was over 100 µM.

CC(O)(/C=C/c1ccccc1)P(=O)(O)c1ccccc1 (stereo not given) gave a TGI (K-562 leukemia) of over 100 µM and a TGI (HCC-2998 colon) of over 100 µM.

Work on c1cc(CSP234N5CCN2CCN3CCN4CC5)ccc1CSP123N4CCN1CCN2CCN3CC4 yielded a TGI (K-562 leukemia) of over 100 µM and a TGI (HCC-2998 colon) of over 100 µM.

C/C(=N\NC(=S)NC1CCCC1)c1ccccn1 was tested, and the TGI (HCC-2998 colon) was over 100 µM.

With CC(=O)O[C@@H]1[C@H]2[C@@H](OC(=O)c3ccccc3)[C@@H](C)C[C@]2(O)[C@H](OC(C)=O)[C@@]2(C)[C@@H]3CC(C)(C)C(=O)[C@]3(OC(C)=O)C[C@@]12C the TGI (HCC-2998 colon) was over 25 µM.

Cc1cc(C)nc(NC(=S)Nc2ccccc2Cl)c1 was tested, and the TGI (K-562 leukemia) was over 100 µM.

Cc1ccccc1NC(=O)C(=O)CC(=O)c1sc(Nc2ccccc2[N+](=O)[O-])nc1C gave a TGI (K-562 leukemia) of over 100 µM and a TGI (HCC-2998 colon) of 59.3 µM.
